Test results taken from ChEMBL document CHEMBL1201862, “PubChem BioAssay data set” (2004).
The source made the active and inactive calls.

Legend:
[1] = target: Adenosylmethionine-8-amino-7-oxononanoate aminotransferase (Mycobacterium tuberculosis, UniProt P9WQ81); assay: Mycobacterium tuberculosis BioA enzyme inhibitor Measured in Biochemical System Using Plate Reader - 2163-02_Inhibitor_Dose_CherryPick_Activity.; format: functional, Mycobacterium tuberculosis UT205
[2] = target: Protein kinase C gamma type (Homo sapiens, UniProt P05129); format: functional
[3] = target: T1, Protein kinase C zeta type (Homo sapiens, UniProt Q05513); format: functional;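 note: measured as one member of a broad kinase profiling panel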
T1 sequence (Q05513 whole entry): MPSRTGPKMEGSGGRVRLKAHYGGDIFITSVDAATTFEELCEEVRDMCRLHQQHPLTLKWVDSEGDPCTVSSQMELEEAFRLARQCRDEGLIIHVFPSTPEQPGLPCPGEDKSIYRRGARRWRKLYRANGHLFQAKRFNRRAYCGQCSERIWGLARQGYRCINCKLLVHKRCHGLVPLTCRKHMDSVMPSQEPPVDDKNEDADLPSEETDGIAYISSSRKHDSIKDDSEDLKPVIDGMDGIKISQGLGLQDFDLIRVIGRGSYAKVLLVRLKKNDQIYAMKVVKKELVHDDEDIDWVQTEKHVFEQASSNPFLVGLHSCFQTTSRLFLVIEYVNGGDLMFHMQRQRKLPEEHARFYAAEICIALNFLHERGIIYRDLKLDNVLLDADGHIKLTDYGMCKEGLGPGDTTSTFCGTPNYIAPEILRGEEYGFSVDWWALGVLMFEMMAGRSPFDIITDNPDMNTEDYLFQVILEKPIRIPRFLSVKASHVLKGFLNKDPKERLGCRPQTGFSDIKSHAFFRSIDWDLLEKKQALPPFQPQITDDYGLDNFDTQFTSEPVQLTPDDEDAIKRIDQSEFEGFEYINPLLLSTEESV

[4] = target: MAP kinase-activated protein kinase 3 (Homo sapiens, UniProt Q16644); format: functional;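 note: value comes from a kinome-wide profiling panel in which MAPKAPK3 is one of the panel members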
[5] = target: T2, Testis-specific serine/threonine-protein kinase 2 (Homo sapiens, UniProt Q96PF2); format: functional;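 note: part of the Navigating the Kinome panel, target entry STK22B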
T2 sequence (Q96PF2 whole entry): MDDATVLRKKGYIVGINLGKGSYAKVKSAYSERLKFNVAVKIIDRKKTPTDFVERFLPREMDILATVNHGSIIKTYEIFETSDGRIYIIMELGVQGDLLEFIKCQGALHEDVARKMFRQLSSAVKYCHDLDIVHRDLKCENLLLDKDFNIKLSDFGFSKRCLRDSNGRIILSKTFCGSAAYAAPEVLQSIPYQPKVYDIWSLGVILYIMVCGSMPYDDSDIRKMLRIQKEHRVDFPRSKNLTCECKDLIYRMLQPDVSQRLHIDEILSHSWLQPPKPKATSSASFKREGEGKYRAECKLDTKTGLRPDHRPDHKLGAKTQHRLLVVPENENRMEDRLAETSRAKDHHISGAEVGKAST

[6] = target: T3, Lymphokine-activated killer T-cell-originated protein kinase (Homo sapiens, UniProt Q96KB5); format: functional;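 note: value comes from a kinase panel screen in which TOPK was one of the panel members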
T3 sequence (Q96KB5 whole entry): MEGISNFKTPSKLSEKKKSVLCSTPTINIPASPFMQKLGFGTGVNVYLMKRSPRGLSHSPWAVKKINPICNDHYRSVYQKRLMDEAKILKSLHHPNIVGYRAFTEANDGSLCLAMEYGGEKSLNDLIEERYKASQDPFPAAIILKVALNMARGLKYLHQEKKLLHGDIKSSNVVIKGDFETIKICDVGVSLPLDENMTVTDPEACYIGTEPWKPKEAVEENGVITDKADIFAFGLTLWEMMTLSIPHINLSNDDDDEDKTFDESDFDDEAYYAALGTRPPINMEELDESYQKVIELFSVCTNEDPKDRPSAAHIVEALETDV

[7] = target: PAS domain-containing serine/threonine-protein kinase (Homo sapiens, UniProt Q96RG2); format: functional
[8] = target: Cyclin-dependent kinase 1 (Homo sapiens, UniProt P06493); format: functional;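 note: Kinome-wide panel profiling, with the target listed as panel member CDC2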
[9] = target: T4, Dual specificity tyrosine-phosphorylation-regulated kinase 3 (Homo sapiens, UniProt O43781); format: functional;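 note: measured as one member of a broad kinase panel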
T4 sequence (O43781 whole entry): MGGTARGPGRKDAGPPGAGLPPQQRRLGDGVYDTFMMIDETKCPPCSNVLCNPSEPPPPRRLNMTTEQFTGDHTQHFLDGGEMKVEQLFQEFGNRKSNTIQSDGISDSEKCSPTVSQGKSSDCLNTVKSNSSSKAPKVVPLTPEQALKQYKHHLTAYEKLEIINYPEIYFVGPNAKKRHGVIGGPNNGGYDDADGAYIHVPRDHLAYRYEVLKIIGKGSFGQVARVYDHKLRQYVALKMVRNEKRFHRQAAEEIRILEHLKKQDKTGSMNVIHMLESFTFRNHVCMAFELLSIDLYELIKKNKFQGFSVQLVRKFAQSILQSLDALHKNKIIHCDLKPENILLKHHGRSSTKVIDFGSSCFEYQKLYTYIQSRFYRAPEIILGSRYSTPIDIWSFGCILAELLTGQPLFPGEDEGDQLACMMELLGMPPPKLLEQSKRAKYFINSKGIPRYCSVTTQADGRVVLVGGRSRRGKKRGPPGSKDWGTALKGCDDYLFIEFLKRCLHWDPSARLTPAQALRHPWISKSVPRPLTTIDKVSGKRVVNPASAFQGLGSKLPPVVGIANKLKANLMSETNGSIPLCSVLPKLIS

[10] = miR-122 activators in hepatoma reporter cells, dose response, cell-based, Huh7 psiCHECK-miR122, Renilla luciferase, cherry-picked (AID 651956); format: functional;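 note: huh7 hepatoma cells stably carrying a psiCHECK-2 miR-122 sensor plasmid; renilla luciferase signal reporting endogenous miR-122 activity after 48 h compound exposure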
[11] = target: T5, Aryl hydrocarbon receptor (Homo sapiens, UniProt P35869); settings: Potency;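 note: confirmatory quantitative high-throughput screen measuring activation of the AhR signaling pathway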
T5 sequence (P35869 whole entry): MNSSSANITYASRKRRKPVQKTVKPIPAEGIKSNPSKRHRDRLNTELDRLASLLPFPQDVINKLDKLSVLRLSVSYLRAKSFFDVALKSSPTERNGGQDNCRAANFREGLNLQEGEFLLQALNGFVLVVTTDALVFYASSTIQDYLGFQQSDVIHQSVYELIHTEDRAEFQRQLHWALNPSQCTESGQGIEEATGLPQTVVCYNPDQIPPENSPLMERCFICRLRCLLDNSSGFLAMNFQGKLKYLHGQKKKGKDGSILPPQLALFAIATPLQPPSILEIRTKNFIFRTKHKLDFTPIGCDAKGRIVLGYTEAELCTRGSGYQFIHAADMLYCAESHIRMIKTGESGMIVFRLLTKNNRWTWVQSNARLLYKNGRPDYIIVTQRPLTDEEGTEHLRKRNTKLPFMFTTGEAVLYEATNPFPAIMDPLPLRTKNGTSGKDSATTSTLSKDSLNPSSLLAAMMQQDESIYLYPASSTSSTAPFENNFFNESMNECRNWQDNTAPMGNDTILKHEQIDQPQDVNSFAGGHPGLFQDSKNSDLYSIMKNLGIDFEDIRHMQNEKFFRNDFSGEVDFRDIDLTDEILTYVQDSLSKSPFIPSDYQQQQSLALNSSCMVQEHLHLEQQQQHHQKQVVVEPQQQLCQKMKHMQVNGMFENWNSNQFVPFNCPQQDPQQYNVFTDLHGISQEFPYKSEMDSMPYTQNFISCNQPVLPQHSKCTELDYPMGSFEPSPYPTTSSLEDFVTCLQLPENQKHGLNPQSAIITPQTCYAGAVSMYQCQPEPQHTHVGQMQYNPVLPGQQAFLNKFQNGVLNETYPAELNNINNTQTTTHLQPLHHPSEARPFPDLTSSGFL

Cytochrome P450 3A4 = Cytochrome P450 3A4 (Homo sapiens, UniProt P08684); settings: Potency;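 note: confirmatory qHTS run detecting inhibitors and substrates of CYP3A4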
BJ [12] = assay: cells; format: functional, cell-based; settings: Homo sapiens
BJ [13] = assay: cytotoxicity toward BJ-TERT fibroblasts, dose response, cell-based, RAS-independent, luminescence (AID 1933); format: functional; settings: Homo sapiens
[14] = cytotoxicity toward DRD oncogenic fibroblasts, dose response, cell-based, non-viral oncogenic, luminescence (AID 1934); format: functional; settings: Homo sapiens
BJ [15] = assay: cytotoxicity toward BJ-TERT-LT-ST fibroblasts, dose response, cell-based, RAS-independent, luminescence (AID 1935); format: functional; settings: Homo sapiens;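 note: BJ fibroblasts immortalized with TERT plus LT and ST oncogenes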
[16] = target: T6, Mitochondrial peptide methionine sulfoxide reductase (Bos taurus, UniProt P54149); format: functional;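 note: absorbance read-out, biochemical high-throughput dose-response screen for MsrA inhibitors, confirmatory; recombinant bovine MsrA coupled to E. coli TrxB with NADPH and selenocystamine; potency is for inhibitors of MsrA activity on DMSO substrate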
T6 sequence (P54149 whole entry): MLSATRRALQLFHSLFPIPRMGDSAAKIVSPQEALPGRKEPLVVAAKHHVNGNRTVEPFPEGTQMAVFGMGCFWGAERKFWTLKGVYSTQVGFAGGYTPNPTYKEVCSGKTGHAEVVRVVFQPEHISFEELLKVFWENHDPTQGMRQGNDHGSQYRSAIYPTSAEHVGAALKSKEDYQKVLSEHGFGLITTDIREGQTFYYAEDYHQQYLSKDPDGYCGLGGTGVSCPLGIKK

[17] = target: T7, Sentrin-specific protease 1 (Homo sapiens, UniProt Q9P0U3); assay: potency of human SENP1 inhibitors, dose response, biochemical, kinetic FRET (AID 651697); format: functional; settings: read-out: IC50_Mean
T7 sequence (Q9P0U3 whole entry): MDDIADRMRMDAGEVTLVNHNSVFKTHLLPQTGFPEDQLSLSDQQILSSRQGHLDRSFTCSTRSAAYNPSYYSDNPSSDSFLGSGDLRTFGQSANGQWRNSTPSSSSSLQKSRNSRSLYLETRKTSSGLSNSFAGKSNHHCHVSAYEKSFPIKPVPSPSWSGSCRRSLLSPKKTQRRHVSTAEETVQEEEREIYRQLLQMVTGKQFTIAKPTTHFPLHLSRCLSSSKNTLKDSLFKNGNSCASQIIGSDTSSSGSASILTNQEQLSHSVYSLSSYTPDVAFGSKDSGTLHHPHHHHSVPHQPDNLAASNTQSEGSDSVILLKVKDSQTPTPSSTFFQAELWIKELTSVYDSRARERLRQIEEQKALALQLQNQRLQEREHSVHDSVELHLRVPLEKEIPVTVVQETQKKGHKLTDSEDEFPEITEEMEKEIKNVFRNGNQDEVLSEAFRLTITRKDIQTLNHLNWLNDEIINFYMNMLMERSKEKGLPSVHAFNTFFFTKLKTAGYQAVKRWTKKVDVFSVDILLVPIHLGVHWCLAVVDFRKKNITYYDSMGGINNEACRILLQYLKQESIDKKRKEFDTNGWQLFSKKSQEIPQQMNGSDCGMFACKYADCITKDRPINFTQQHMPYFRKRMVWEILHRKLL

[18] = target: T7, Sentrin-specific protease 1; assay: Dose response confirmation of small molecule inhibitors of the catalytic domain of the SUMO protease, SENP1 in a FRET assay.; format: functional; settings: read-out: IC50_Mean
Vero = assay: cells; format: functional; settings: Chlorocebus sabaeus

Sequence of Adenosylmethionine-8-amino-7-oxononanoate aminotransferase (P9WQ81 whole entry): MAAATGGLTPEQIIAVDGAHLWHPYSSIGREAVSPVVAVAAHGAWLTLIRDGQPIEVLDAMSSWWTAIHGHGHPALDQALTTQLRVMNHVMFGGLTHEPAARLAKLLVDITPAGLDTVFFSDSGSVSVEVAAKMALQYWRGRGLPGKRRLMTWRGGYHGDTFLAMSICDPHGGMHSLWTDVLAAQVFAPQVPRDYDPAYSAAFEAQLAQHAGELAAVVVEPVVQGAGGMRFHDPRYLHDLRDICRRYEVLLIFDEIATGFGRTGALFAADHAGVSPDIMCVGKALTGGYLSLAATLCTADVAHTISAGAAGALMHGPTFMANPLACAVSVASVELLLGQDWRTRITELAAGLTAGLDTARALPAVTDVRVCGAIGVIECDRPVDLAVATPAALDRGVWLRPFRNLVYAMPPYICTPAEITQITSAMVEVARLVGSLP
Sequence of Cytochrome P450 3A4 (P08684 whole entry): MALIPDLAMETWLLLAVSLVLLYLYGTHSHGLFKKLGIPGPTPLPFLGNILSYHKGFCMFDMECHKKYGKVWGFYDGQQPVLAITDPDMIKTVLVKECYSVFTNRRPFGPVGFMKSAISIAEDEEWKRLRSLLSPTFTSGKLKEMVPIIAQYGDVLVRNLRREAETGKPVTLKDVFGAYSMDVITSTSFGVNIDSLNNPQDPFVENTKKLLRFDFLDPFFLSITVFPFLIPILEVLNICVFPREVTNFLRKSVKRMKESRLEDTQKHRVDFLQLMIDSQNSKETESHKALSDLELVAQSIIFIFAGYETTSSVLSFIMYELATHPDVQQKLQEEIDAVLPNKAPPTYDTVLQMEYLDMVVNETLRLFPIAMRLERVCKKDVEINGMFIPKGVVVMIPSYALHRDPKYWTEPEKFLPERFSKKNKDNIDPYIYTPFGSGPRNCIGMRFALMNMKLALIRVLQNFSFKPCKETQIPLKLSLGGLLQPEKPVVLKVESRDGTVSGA
Sequence of MAP kinase-activated protein kinase 3 (Q16644 whole entry): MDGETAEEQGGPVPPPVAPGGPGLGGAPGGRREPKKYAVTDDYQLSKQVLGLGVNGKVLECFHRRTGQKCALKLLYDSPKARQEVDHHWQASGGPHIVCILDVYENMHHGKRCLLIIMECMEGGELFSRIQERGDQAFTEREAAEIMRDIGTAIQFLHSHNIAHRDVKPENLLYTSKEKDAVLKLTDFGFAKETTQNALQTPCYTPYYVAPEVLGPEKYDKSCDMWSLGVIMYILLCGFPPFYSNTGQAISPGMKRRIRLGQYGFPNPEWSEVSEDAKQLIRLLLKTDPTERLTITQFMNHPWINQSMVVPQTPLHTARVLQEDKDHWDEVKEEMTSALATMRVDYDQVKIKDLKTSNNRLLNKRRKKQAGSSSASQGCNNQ
Sequence of Cyclin-dependent kinase 1 (P06493 whole entry): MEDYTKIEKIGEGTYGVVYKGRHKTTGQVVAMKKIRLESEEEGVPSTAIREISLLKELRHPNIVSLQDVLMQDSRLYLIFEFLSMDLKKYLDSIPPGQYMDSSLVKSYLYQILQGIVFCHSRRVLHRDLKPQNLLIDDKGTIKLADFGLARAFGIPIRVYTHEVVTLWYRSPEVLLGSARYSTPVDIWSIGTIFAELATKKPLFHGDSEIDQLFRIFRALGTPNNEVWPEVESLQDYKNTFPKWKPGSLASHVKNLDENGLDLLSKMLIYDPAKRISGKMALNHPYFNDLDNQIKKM
Sequence of PAS domain-containing serine/threonine-protein kinase (Q96RG2 whole entry, the tested form may be a part): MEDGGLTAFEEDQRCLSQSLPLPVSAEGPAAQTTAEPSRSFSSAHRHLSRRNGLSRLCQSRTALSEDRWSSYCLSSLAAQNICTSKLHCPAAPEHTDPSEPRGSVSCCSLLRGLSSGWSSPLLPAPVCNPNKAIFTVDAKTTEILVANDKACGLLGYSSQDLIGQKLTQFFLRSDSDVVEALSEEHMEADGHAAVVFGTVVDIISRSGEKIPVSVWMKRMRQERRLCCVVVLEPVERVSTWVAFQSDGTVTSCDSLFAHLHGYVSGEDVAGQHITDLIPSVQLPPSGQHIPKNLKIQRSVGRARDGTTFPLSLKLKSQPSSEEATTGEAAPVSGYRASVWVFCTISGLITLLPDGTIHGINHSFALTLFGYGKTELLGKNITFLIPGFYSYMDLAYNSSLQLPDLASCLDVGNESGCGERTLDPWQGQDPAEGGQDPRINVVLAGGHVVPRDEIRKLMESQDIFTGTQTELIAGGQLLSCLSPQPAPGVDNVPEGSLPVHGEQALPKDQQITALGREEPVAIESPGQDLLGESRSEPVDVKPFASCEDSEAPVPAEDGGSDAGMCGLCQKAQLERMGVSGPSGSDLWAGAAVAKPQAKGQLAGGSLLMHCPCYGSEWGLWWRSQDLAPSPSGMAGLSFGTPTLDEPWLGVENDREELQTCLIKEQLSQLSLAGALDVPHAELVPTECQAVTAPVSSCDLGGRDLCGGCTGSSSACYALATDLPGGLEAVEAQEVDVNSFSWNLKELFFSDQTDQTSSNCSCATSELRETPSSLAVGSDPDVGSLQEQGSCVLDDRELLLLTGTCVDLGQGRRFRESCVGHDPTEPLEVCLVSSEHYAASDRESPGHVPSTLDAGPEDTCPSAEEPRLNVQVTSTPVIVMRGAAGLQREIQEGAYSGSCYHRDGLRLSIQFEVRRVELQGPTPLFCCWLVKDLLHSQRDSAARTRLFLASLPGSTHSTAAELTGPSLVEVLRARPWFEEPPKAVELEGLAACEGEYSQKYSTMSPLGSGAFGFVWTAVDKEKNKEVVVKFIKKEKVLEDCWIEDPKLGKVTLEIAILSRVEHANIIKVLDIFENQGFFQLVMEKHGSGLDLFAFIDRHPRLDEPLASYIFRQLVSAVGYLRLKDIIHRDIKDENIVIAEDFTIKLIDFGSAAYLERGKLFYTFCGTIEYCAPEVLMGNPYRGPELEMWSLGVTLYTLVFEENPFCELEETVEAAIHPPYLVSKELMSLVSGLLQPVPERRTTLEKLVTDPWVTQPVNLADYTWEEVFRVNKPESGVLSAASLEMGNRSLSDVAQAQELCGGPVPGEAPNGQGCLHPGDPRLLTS

For `COc1cc2cnc(-c3cccnc3)cc2cc1OC`, the AC50 [1] was 11.2 µM (active).

With `CN1CCN(c2ccc3nc(-c4c(N)c5c(F)cccc5[nH]c4=O)[nH]c3c2)CC1` [DOVITINIB] the Ki [2] was > 7.94 µM (inactive), the Ki [3] was > 7.94 µM (inactive) and the Ki [4] was > 10 µM (inactive). The Ki [5] was > 1.58 µM (inactive), the Ki [6] was > 10 µM (inactive) and the Ki [7] was > 1.58 µM (inactive). For the same compound, the Ki [8] was > 7.94 µM (inactive) and the Ki [9] was > 6.31 µM (inactive).

In the case of `CNC(=O)C[C@@H]1CC[C@H]2[C@@H](COc3ccc(NC(=O)c4cccc(OC)c4)cc3C(=O)N2C)O1`, the AC50 [10] is reported as 54.9 µM (active).

With `CC(C)(C)[C@@H](O)/C(=C\c1ccc(Cl)cc1Cl)n1cncn1` the AC50 [11] was 70.8 µM (inconclusive).

For `COc1ccc(C(=O)Nc2ccccc2)cc1[N+](=O)[O-]`, the AC50 [11] was 44.7 µM (inconclusive) and the AC50 (Cytochrome P450 3A4) was 15.8 µM (inconclusive).

In the case of `CC(=O)c1ccc(N2CCN(c3ncccn3)CC2)c([N+](=O)[O-])c1`, the EC50 (BJ [12]) is reported as > 150 µM (not active), the EC50 (BJ [13]) is reported as > 150 µM (not active) and the AC50 [1] is reported as 1.02 µM (active). The EC50 [14] was > 150 µM (not active) and the EC50 (BJ [15]) was > 150 µM (inconclusive).

With `CSc1nc2[nH]c3c(c2c2nnnn12)CCCC3` the IC50 [16] was 155 µM (inactive).

For `O=c1c2ccccc2nc(/C=C/c2cc(Br)ccc2O)n1CCO`, the IC50 [17] was 8.91 µM (active), the IC50 [18] was 6.14 µM (active) and the CC50 (Vero) was 15.2 µM (active).
